From EP0261693A1, “Treated lipid regulator” (WARNER-LAMBERT COMPANY, priority 1986, dated 1988)
≈ marks a conversion by molar mass, not a printed value. Read-outs that look alike come from different tables or passages of the source.

Test: Concentration (solubility) of gemfibrozil in buffer, from absorbance at 280 nm
Type: physicochemical
Conditions: aqueous buffer, excess gemfibrozil agitated overnight at room temperature, filtered, read-out: concentration of gemfibrozil in each buffer
Method: Gemfibrozil solutions were prepared in 0.05 M acetate buffer, pH 4.5, and 0.05 M phosphate buffer, pH 6.0 and 7.5 as follows: • Gemfibrozil solutions were prepared by adding an excess of gemfibrozil to the desired volume of buffer and agitating overnight on a shaker at room temperature. The resulting suspension was vacuum filtered. Gemfibrozil concentration was determined from absorbance at 280 nm, using [formula]
Ultraviolet absorbance measurements were obtained on a Beckman DU-7 spectrophotometer.
The concentration of gemfibrozil in each buffer, determined from absorbance at 280 nm was: pH 4.5, 0.014 mg/ml; pH 6.0, 0.150 mg/ml; pH 7.5, 1.711 mg/ml. Cholestyramine (10 mg) was added to 20 ml of each gemfibrozil solution and the mixtures were agitated for 2 hours. The mixtures were filtered and the concentration of unboud gemfibrozil was determined.

solubility thermodynamic (0.05 M acetate buffer, pH 4.5): 14 µg/mL (≈ 55.9 µM)
solubility thermodynamic (0.05 M phosphate buffer, pH 6.0): 150 µg/mL (≈ 599 µM)
solubility thermodynamic (0.05 M phosphate buffer, pH 7.5): 1710 µg/mL (≈ 6830 µM)
Compound: Cc1ccc(C)c(OCCCC(C)(C)C(=O)O)c1 [gemfibrozil]
